The subject of one test is isolated aorta of rat. The test is described as follows: Relaxing effect on isolated rat aorta rings pre-contracted with phenylephrine. It is filed as cell-based. The following applies: rat aorta with endothelium previously treated with phenylephrine; cumulative concentrations 1 to 1000 nM; FIG. 2. The procedure:
Experiments used male Wistar rats weighing between 300-350 g. The animals were maintained in an environment with humidity (60-80%) and controlled temperature (22±2° C.), with light-dark cycles of 12 hours and free access to water and rations. Before experiments, the animals were acclimatized in the laboratory for a minimum period of 1 hour. Each animal was used only one time in each test.
The animals were sacrificed by deepening anesthesia with ketamine and xylazine hydrochloride, followed by exsanguination made by section of the carotid artery. After opening of the thoracic cavity, the aorta was carefully removed and transferred to a Petri dish containing Krebs-Henseleit solution, with the following composition (mM): NaCI-118; KCl 4.7; CaCl2 2.5; MgSO4 1.2; KH2PO4 0.9; NaHCO3 25; glucose 11. Afterwards, adipose and adjacent connective tissues were carefully removed. […]
After a period of equilibrium of 60 minutes, the preparations were treated with phenylephrine (0.3-1 μM), and after stabilization of the tonic contraction of the preparation, the integrity of the vascular endothelium was evaluated by the capacity of acetylcholine (ACh, 1 μM) to induce relaxation in the preparations. […]

Test [1] deals with isolated cavernous body of rabbit. The test is described as follows: Relaxing effect on isolated cavernous body of rabbit pre-contracted with phenylephrine. The conditions noted are these: cumulative concentrations 1 to 1000 nM. The class given is cell-based. As to the method: Experiments used male rabbits weighing between 3.5 and 4.0 Kg. The animals were anesthetized with sodium pentobarbital (40 mg/kg, i.p), and the abdominal cavity opened for the withdrawal of the penis from the animals. The tissues were placed in a Petri dish containing Krebs-Henseleit solution pH 7.4 (NaCl 118 mM; KCl 4.8 mM; CaCl2 2.5 mM; MgSO4 1.2 mM; KH2PO4 0.9 mM; NaHCO3 25 mM; glucose 11 mM) warmed to 37° C., and cartilage and adherent tissue were carefully removed. In general 3 segments containing approximately 2 cm of length of cavernous body were obtained from each animal. The preparations were mounted on glass reservoirs containing 5 ml of Krebs solution containing indomethacin (5.6 μM) at 37° C., continuously aerated with a mixture of 95% of O2 and 5% of CO2.
The preparations were submitted to a period of equilibrium of at least 90 minutes, under tension of 2 g, during which the bath solution was renewed each 15 minutes. Changes of isometric tension were registered using a TRI-201 force transducer (Letica Scientific Instruments, Spain) connected a polygraph.
After the period of stabilization, the preparations were treated with single concentrations of […] of phenylephrine. […]
The relaxation responses caused by the compounds were calculated in relation to the contractile response of phenylephrine, which is considered as 100% of contraction. […]

Test [2] relates to spontaneous erections in male rats. The test is described as follows: Test of sexual behavior in rats (spontaneous erections) after oral administration. The class given is in vivo, rat. The conditions noted are these: 10 mg/kg oral, observed for 1 hour in presence of females, significantly increased compared to vehicle, average±SEM, FIG. 3. The procedure:
The utilized protocol was adapted from literature articles (Hosseinzadeh et al., 2008; Rizzo et al., 2008). Two days before execution of experiments, couples of males and females were isolated in plastic boxes. In this period, males were housed for 1 hour per day in reinforced metal cages, rectangular with dimensions of 40×23×33 cm. On the day of the test, the male rats were treated with 10 mg/kg (oral) of compound BL-122 or only with vehicle (saline containing 10% of DMSO). Immediately afterwards, animals were placed in observation cages. The rats that received treatment by oral route were fasted for 4 hours before the test. One and a half (1.5) hours after the oral treatment, the females were placed with the respective males in the cages.

Molecules are shown by their SMILES.

With `CN1CC(=O)N[C@H](Cc2c(C(=O)c3ccc4c(c3)OCO4)[nH]c3ccccc23)C1=O` [Compound BL-122, (R)-3-((2-(benzo[d][1,3]dioxol-5-carbonyl)-1H-indol-3-yl)methyl)-1-methylpiperazine-2,5-dione], in the test on isolated aorta of rat, the “relaxation of rat aorta preparations” value is “promoted relaxation”. Besides, the midpoint of the response in test [1] (Oryctolagus cuniculus, cavernous body of rabbit previously contracted with phenylephrine, value with interval in brackets), the EC50, lay at 15.9 nM. The “maximum relaxation (efficacy)” value in test [1] (cavernous body of rabbit previously contracted with phenylephrine (contraction = 100%), average±SEM) is 63.1±7.8%. Besides, in test [2], the spontaneous erections entry is recorded as “about 6.4±2.0”.

As usually defined, the EC50 is the concentration needed to bring the measured effect to its halfway point. A lower EC50 goes with a more potent agent.

The record behind these values is patent US8268831B2, “Compounds derived from 2-(3-methylenedioxy)-benzoyl indol” (Biolab Sanus Farmaceutica Ltda., priority 2008, dated 2012).
